Reference: patent publication US20100063026A1, “ANTIBACTERIAL QUINOLINE DERIVATIVES” (priority 2007, published 2010)
Converted amounts (≈) assume the structure as drawn.

What was measured:
[1] = tested on: Staphylococcus aureus (ATCC29213); assay: Microtitre plate IC90 determination against non-mycobacterial strains: S. aureus; type: cell-based; conditions: 90% inhibitory concentration for bacterial growth, 37° C., resazurin fluorescence; for IC90 STA 1 B29213: 24 hours; for IC90: Staphylococcus aureus, ATCC29213, 24 h, read-out: IC90 STA 1 B29213
Description: (§1) The bacteria used in this study were grown overnight in flasks containing 100 ml Mueller-Hinton Broth (Becton Dickinson-cat. no. 275730) in sterile de-ionized water, with shaking, at 37° C. Stocks (0.5 ml/tube) were stored at -70° C. until use. Bacteria titrations were performed in microtiter plates to detect the TCID50, in which the TCID50 represents the dilution that gives rise to bacterial growth in 50% of inoculated cultures. In general, an inoculum level of approximately 100 TCID50 was used for susceptibility testing. […] Therefore resazurin (0.6 mg/ml) was added in a volume of 20 μl to all wells 3 hours after inoculation, and the plates were re-incubated overnight. A change in colour from blue to pink indicated the growth of bacteria.

[2] = tested on: Streptococcus pneumoniae (ATCC6305); assay: Microtitre plate IC90 determination against non-mycobacterial strains: S. pneumoniae; type: cell-based; conditions: 90% inhibitory concentration for bacterial growth, 37° C., resazurin fluorescence; for IC90 SPN 1 6305: 24 hours; for IC90: Streptococcus pneumoniae, ATCC6305, 24 h, read-out: IC90 SPN 1 6305
Description: as §1

[3] = tested on: M. smegmatis ATCC607; assay: In-vitro anti-bacterial activity against strain M. smegmatis ATCC607; conditions: for IC90 MSM 1 ATCC607: 90% inhibitory concentration for bacterial growth, 48 hours, 37° C., Alamar Blue fluorescence; for IC90: Mycolicibacterium smegmatis, ATCC607, 48 h, read-out: IC90 MSM 1 ATCC607, 90% inhibitory concentration for bacterial growth, 37° C., Alamar Blue fluorescence
Description: Flat-bottom, sterile 96-well plastic microtiter plates were filled with 180 μl of sterile deionized water, supplemented with 0.25% BSA. Subsequently, stock solutions (7.8× final test concentration) of compounds were added in 45 μl volumes to a series of duplicate wells in column 2 so as to allow evaluation of their effects on bacterial growth. Serial five-fold dilutions (45 μl in 180 μl) were made directly in the microtiter plates from column 2 to 11 using a customised robot system (Zymark Corp., Hopkinton, Mass.). Pipette tips were changed after every 3 dilutions to minimize pipetting errors with high hydrophobic compounds. Untreated control samples with (column 1) and without (column 12) inoculum were included in each microtiter plate. Approximately 250 CFU per well of bacteria inoculum, in a volume of 100 μl in 2.8× Mueller-Hinton broth medium, was added to the rows A to H, except column 12. The same volume of broth medium without inoculum was added to column 12 in row A to H. The cultures were incubated at 37° C. for 48 hours in a humidified 5% CO2 atmosphere (incubator with open air valve and continuous ventilation). At the end of incubation, two days after inoculation, the bacterial growth was quantitated fluorometrically. Therefore Alamar Blue (10×) was added to all wells in a volume of 20 μl and plates were incubated for another 2 hours at 50° C.
The fluorescence was read in a computer-controlled fluorometer (Cytofluor, Biosearch) at an excitation wavelength of 530 nm and an emission wavelength of 590 nm (gain 30). The percentage growth inhibition achieved by the compounds was calculated according to standard methods and expressed as IC90 (μg/ml) which defines the 90% inhibitory concentration for bacterial growth.

Row | Compound | IC90 STA 1 B29213 [1] [µg/mL] | IC90 SPN 1 6305 [2] [µg/mL] | melting point [°C] | IC90 MSM 1 ATCC607 [3] [µg/mL] | IC90 [1] [µg/mL] | IC90 [2] [µg/mL] | IC90 [3] [µg/mL]
1 | COc1nc2ccc(Br)cc2cc1C(c1ccccc1)C(O)(CCCCN1CCC(N2CCCCC2)CC1)CCc1ccccc1 (single isomer, unassigned) [Compound 11] | 10.9 (≈ 15.9 µM) | 10.9 (≈ 15.9 µM) | 164 | 12.2 (≈ 17.8 µM) | – | – | –
2 | COc1nc2ccc(Br)cc2cc1C(c1ccccc1)C(O)(CCCCN1CC2CC1CN2CCc1ccccc1)c1ccc2ccccc2c1 (single isomer, unassigned) [Compound 25] | 2.3 (≈ 3.1 µM) | 0.5 (≈ 0.675 µM) | 137 | 1.7 (≈ 2.29 µM) | – | – | –
3 | COc1nc2ccc(Br)cc2cc1C(c1ccccc1)C(O)(CCCCN1CCC(N2CCCCC2)CC1)c1ccc2ccccc2c1 (single isomer, unassigned) [Compound 29] | 5.0 (≈ 7.07 µM) | 0.8 (≈ 1.13 µM) | 177 | 2.2 (≈ 3.11 µM) | – | – | –
4 | COc1nc2ccc(Br)cc2cc1C(c1ccccc1)C(O)(CCCCN1CCN(C2CCN(Cc3ccccc3)C2)CC1)c1ccc2ccccc2c1 (single isomer, unassigned) [Compound 32] | 2.5 (≈ 3.19 µM) | 2.5 (≈ 3.19 µM) | – | 5.6 (≈ 7.14 µM) | – | – | –
5 | COc1nc2ccc(Br)cc2cc1C(c1ccccc1)C(O)(CCCCN1CCCNCC1)c1ccc2ccccc2c1 (single isomer, unassigned) [Compound 33] | – | – | 119 | – | 2 (≈ 3.13 µM) | 0.5 (≈ 0.783 µM) | 0.4 (≈ 0.626 µM)
6 | COc1nc2ccc(Br)cc2cc1C(c1ccc(Cl)cc1)C(O)(CCCCN1CC2CC1CN2Cc1ccccc1)c1ccc2ccccc2c1 (single isomer, unassigned) [Compound 36] | 53.9 (≈ 70.8 µM) | – | – | – | – | 0.9 (≈ 1.18 µM) | 2.7 (≈ 3.55 µM)
7 | COc1nc2ccc(Br)cc2cc1C(c1ccc(Cl)cc1)C(O)(CCCCN1CC2CC1CN2Cc1ccccc1)c1ccc2ccccc2c1 (single isomer, unassigned) [Compound 37] | 2.7 (≈ 3.55 µM) | 0.5 (≈ 0.657 µM) | – | 2.1 (≈ 2.76 µM) | – | – | –
8 | COc1nc2ccc(Br)cc2cc1C(c1ccccc1)C(O)(CCCCNC1CC2CCC1C2)c1ccc2ccccc2c1 (single isomer, unassigned) [Compound 38] | – | – | – | – | 10.3 (≈ 15.9 µM) | 2.6 (≈ 4 µM) | 2.1 (≈ 3.23 µM)
9 | COc1nc2ccc(Br)cc2cc1C(c1ccccc1)C(O)(CCCCN1CCC1)c1ccccc1 (single isomer, unassigned) [Compound 41] | 1.7 (≈ 3.12 µM) | 1.7 (≈ 3.12 µM) | – | – | – | – | 1.7 (≈ 3.12 µM)
10 | COc1nc2ccc(Br)cc2cc1C(c1ccccc1)C(O)(CCCCN1CCC1)c1ccccc1 (single isomer, unassigned) [Compound 42] | 8.6 (≈ 15.8 µM) | 4.3 (≈ 7.88 µM) | – | 2.2 (≈ 4.03 µM) | – | – | –
11 | COc1nc2ccc(Br)cc2cc1C(c1ccccc1)C(O)(CCCCN1CCCNCC1)c1ccccc1 (single isomer, unassigned) [Compound 47] | – | – | – | – | 1.9 (≈ 3.23 µM) | 0.9 (≈ 1.53 µM) | 1.9 (≈ 3.23 µM)
12 | COc1nc2ccc(Br)cc2cc1C(c1ccccc1)C(O)(CCCCN1CC2CC1CN2Cc1ccccc1)c1ccccc1 (single isomer, unassigned) [Compound 48] | – | – | – | – | 2.1 (≈ 3.1 µM) | 0.5 (≈ 0.739 µM) | 2.4 (≈ 3.55 µM)
13 | COc1nc2ccc(Br)cc2cc1C(c1ccccc1)C(O)(CCCCN1CC2CC1CN2Cc1ccccc1)c1ccccc1 (single isomer, unassigned) [Compound 49] | 2.1 (≈ 3.1 µM) | 0.3 (≈ 0.443 µM) | – | 2.1 (≈ 3.1 µM) | – | – | –
14 | CN1CCCN(CCCCC(O)(c2ccc3ccccc3c2)C(c2ccccc2)c2cc3cc(Br)ccc3[nH]c2=O)CC1 (single isomer, unassigned) [Compound 50] | 10.1 (≈ 15.8 µM) | – | 210 | 2.3 (≈ 3.6 µM) | – | 4.5 (≈ 7.05 µM) | –
15 | COc1nc2ccc(Br)cc2cc1C(c1ccccc1)C(O)(CCCCN(C)CCN(C)C)c1ccccc1 (single isomer, unassigned) [Compound 51] | – | – | – | – | 9.4 (≈ 15.9 µM) | 9.4 (≈ 15.9 µM) | 9.4 (≈ 15.9 µM)
16 | COc1nc2ccc(Br)cc2cc1C(c1ccccc1)C(O)(CCCCN1CC2CC1CN2CC(C)C)c1ccc2ccccc2c1 (single isomer, unassigned) [Compound 53] | – | – | – | – | 2.2 (≈ 3.18 µM) | 0.1 (≈ 0.144 µM) | 1.6 (≈ 2.31 µM)
17 | COc1nc2ccc(Br)cc2cc1C(c1ccccc1)C(O)(CCCCCN1CCCN(C)CC1)c1ccc2ccccc2c1 (single isomer, unassigned) [Compound 54] | – | 2.1 (≈ 3.15 µM) | – | – | 2.1 (≈ 3.15 µM) | – | 2.1 (≈ 3.15 µM)
18 | COc1nc2ccc(Br)cc2cc1C(c1ccccc1)C(O)(CCCCCN1CCCN(C)CC1)c1ccc2ccccc2c1 (single isomer, unassigned) [Compound 55] | 2.1 (≈ 3.15 µM) | 0.4 (≈ 0.6 µM) | – | 2.1 (≈ 3.15 µM) | – | – | –
19 | COc1nc2ccc(Br)cc2cc1C(c1ccccc1)C(O)(CCCCN(C)CCc1ccccn1)c1ccccc1 (centres unmarked) [Compound 6] | – | – | – | – | 2 (≈ 3.2 µM) | 2.2 (≈ 3.52 µM) | 2 (≈ 3.2 µM)
20 | COc1nc2ccc(Br)cc2cc1C(c1ccccc1)C(O)(CCCCN(C)CCc1ccccn1)c1ccccc1 (centres unmarked) [Compound 7] | 2.0 (≈ 3.2 µM) | 2.0 (≈ 3.2 µM) | – | 2.0 (≈ 3.2 µM) | – | – | –
21 | COc1nc2ccc(Br)cc2cc1C(c1ccccc1)C(O)(CCCCN(C)CCc1ccccn1)c1ccccc1 (centres unmarked) [Compound 8] | 2.0 (≈ 3.2 µM) | 2.2 (≈ 3.52 µM) | – | 2.0 (≈ 3.2 µM) | – | – | –
22 | COc1nc2ccc(Br)cc2cc1C(c1ccccc1)C(O)(CCCCN(C)CCc1ccccn1)c1ccccc1 (centres unmarked) [Compound 9] | 2.0 (≈ 3.2 µM) | 2.2 (≈ 3.52 µM) | – | 2.0 (≈ 3.2 µM) | – | – | –
23 | COc1nc2ccc(Br)cc2cc1C(c1ccccc1)C(O)(CCCCN1CC2CC1CN2Cc1ccccc1)c1ccc2ccccc2c1 (centres unmarked) [Compound 22] | 9.2 (≈ 12.7 µM) | 2.9 (≈ 3.99 µM) | – | – | – | – | 0.6 (≈ 0.826 µM)
24 | COc1nc2ccc(Br)cc2cc1C(c1ccccc1)C(O)(CCCCN1CCCN(C)CC1)c1ccc2ccccc2c1 (centres unmarked) [Compound 34b] | – | 2.1 (≈ 3.22 µM) | – | 2.1 (≈ 3.22 µM) | 2.1 (≈ 3.22 µM) | – | –
25 | COc1nc2ccc(Br)cc2cc1C(c1ccccc1)C(O)(CCCCN1CCCN(C)CC1)c1ccc2ccccc2c1 (centres unmarked) [Compound 34d] | 2.1 (≈ 3.22 µM) | 0.4 (≈ 0.613 µM) | – | 2.1 (≈ 3.22 µM) | – | – | –
26 | COc1nc2ccc(Br)cc2cc1C(c1ccccc1)C(O)(CCCCN1CCCN(C)CC1)c1ccc2ccccc2c1 (centres unmarked) [Compound 35a] | 2.1 (≈ 3.22 µM) | 0.4 (≈ 0.613 µM) | – | 0.9 (≈ 1.38 µM) | – | – | –
27 | COc1nc2ccc(Br)cc2cc1C(c1ccccc1)C(O)(CCCCN1CCCN(C)CC1)c1ccc2ccccc2c1 (centres unmarked) [Compound 35c] | 2.1 (≈ 3.22 µM) | 0.4 (≈ 0.613 µM) | – | 1.5 (≈ 2.3 µM) | – | – | –
28 | COc1nc2ccc(Br)cc2cc1C(c1ccccc1)C(O)(CCCCNC1CC2CCC1C2)c1ccc2ccccc2c1 (centres unmarked) [Compound 39] | – | – | – | 1.8 (≈ 2.77 µM) | 1.8 (≈ 2.77 µM) | 0.4 (≈ 0.616 µM) | –
29 | COc1nc2ccc(Br)cc2cc1C(c1ccccc1)C(O)(CCCCNC1CC2CCC1C2)c1ccc2ccccc2c1 (centres unmarked) [Compound 40] | 1.6 (≈ 2.46 µM) | 0.5 (≈ 0.77 µM) | – | 0.4 (≈ 0.616 µM) | – | – | –
30 | COc1nc2ccc(Br)cc2cc1C(c1ccccc1)C(O)(CCCCN1CC2CC1CN2CC(C)C)c1ccc2ccccc2c1 (centres unmarked) [Compound 52] | – | – | – | – | 2.2 (≈ 3.18 µM) | 0.5 (≈ 0.722 µM) | 2.2 (≈ 3.18 µM)
